2 molecules from patent publication US11739043B2, “Illudin analogs, uses thereof, and methods for synthesizing the same” (Lantern Pharma Inc., priority 2018, dated 2023) can be followed below.

Holding throughout (format): cell-based
One assay has as its system DU145 cell line. The experiment in a line: Cytotoxicity / growth inhibition, 96-well CellTiter-Glo assay, DU145. The following applies: for GI50: Homo sapiens, DU-145, 72 h, DU145, prostate cancer cell line, 3-day assay, read-out: GI50, concentration that inhibits 50% cell growth. How it is done:
(§1) Cytotoxicity. The growth-inhibition activities of both purified UMAF (also referred to as UMAF in this example) optical enantiomers were studied in a standard 96-well cell-based assay using representative cell lines from prostate, ovarian, and lung cancers. The concentrations that cause a 50% inhibition of cell growth (GI50) were determined using a luminescent vital assay reagent (CellTiter-Glo®, Promega Corporation). The growth inhibition curves as a function of UMAF concentration are shown from a representative assay. […] The GI50 concentrations of the two forms for the six cell lines are shown below.
(In ATP-based viability assays light output follows the ATP content of the culture.)

In a further assay the test system is PC3 cell line. The experiment in a line: Cytotoxicity / growth inhibition, 96-well CellTiter-Glo assay, PC3. The following applies: Homo sapiens, PC-3, 72 h; PC3, prostate cancer cell line, 3-day assay; read-out: GI50, concentration that inhibits 50% cell growth. As for the experimental part:
as §1

A further assay has as its system H1975 cell line. In words: Cytotoxicity / growth inhibition, 96-well CellTiter-Glo assay, H1975. The following applies: for GI50: Homo sapiens, NCI-H1975, 72 h, H1975, lung cancer cell line, 3-day assay, read-out: GI50, concentration that inhibits 50% cell growth. How it is done: as §1
Another assay deals with HCC827 cell line. In words: Cytotoxicity / growth inhibition, 96-well CellTiter-Glo assay, HCC827. The following applies: Homo sapiens, 72 h; HCC827, lung cancer cell line, 3-day assay; read-out: GI50, concentration that inhibits 50% cell growth. As for the experimental part:
as §1

In the next assay the test system is SK-OV3 cell line. In words: Cytotoxicity / growth inhibition, 96-well CellTiter-Glo assay, SK-OV3. The following applies: for GI50: Homo sapiens, SK-OV-3, 72 h, SK-OV3, ovarian cancer cell line, 3-day assay, read-out: GI50, concentration that inhibits 50% cell growth. As for the experimental part: as §1
For another assay, the system named is OVCAR-3 cell line. In words: Cytotoxicity / growth inhibition, 96-well CellTiter-Glo assay, OVCAR-3. The following applies: for GI50: Homo sapiens, 72 h, OVCAR-3, ovarian cancer cell line, 3-day assay, read-out: GI50, concentration that inhibits 50% cell growth. As for the experimental part: as §1

For `CC1=C(CN(O)C(N)=O)C2=C(C)C3(CC3)[C@@](C)(O)C(=O)C2=C1` [(−)-UMAF, (−)-hydroxyureamethylacylfulvene], the GI50 in the assay with DU145 cell line was determined as 506 nM; in the assay on PC3 cell line, 824 nM; with H1975 cell line, 6320 nM; in the assay on HCC827 cell line it was 1640 nM; in the assay with SK-OV3 cell line, 2400 nM; in the assay with OVCAR-3 cell line it was 1820 nM.
Turning to `CC1=C(CN(O)C(N)=O)C2=C(C)C3(CC3)[C@](C)(O)C(=O)C2=C1` [(+)-UMAF, (+)-hydroxyureamethylacylfulvene], the “toxicity compared between the two enantiomers (growth inhibition curves)” value is “more toxic” in the assay with DU145 cell line (DU145, FIG. 4); “more toxic” with H1975 cell line (H1975, FIG. 9); “more toxic” with SK-OV3 cell line (SK-OV3, FIG. 7); “more toxic” with OVCAR-3 cell line (OVCAR3, FIG. 6). In addition, the GI50 in the assay on DU145 cell line is 34.8 nM; in the assay on PC3 cell line it was 1120 nM; in the assay on H1975 cell line, 287 nM; in the assay with HCC827 cell line, 897 nM; with SK-OV3 cell line, 554 nM; in the assay with OVCAR-3 cell line, 254 nM.
